Measurements reported in PMC5896380, “Selective imaging of cathepsin L in breast cancer by fluorescent activity-based probes” (Chemical Science, 2018).

Legend:
[1] = test system: cathepsin B in MDA-MB-231 cells; experiment: Weighted colocalization of probe with cathepsin B antibody, confocal microscopy; assay type: cell-based, human; conditions: CatB ab (8h), 1 μM probe
Description: Glass coverslips 15 mm in diameter were placed in 12-well plates and coated with poly-D-lysine (500 μL, 1 mg mL^–1 in water, Specialty Media) for 30 minutes. The poly-D-lysine was aspirated and the coverslips were washed twice with sterile water and air-dried. Next, low passage MDA-MB-231 cells in DMEM (100 000 cells per mL) were added to wells (1 mL per well) and allowed to attach for 2 hours. Cells were then treated with Cy5-labeled probes (1 μM) for 8 or 24 hours. The control cells were preincubated with E64d for 2 hours. After various incubation times, the medium was removed and the cells were gently washed twice with DPBS (1 mL each). The cells were then fixed with ice-cold methanol (500 μL per well) for 15 minutes at –20 °C. […] Cathepsins L and B were detected by primary goat anti-hCathepsin L (R&D, AF952, 0.2 mg mL^–1, 1 : 200) and goat anti-hCathepsin B (R&D, AF953, 0.2 mg mL^–1, 1 : 80), respectively, in 3% BSA in DPBS (with 0.5% Triton-X, v/v) for 2 hours at room temperature. […] Next, the cells were washed twice with DPBS, and coverslips were mounted using Vectashield mounting medium fluorescence containing DAPI (Vector Lab. H-1000). […] All images were acquired in .tiff format in MetaMorph software or in .lsm format in ZEN software and analyzed using ImageJ and ZEN software. […]

[2] = test system: cathepsins L and B in MDA-MB-231 cells; experiment: Cathepsin labeling in MDA-MB-231 cells by SDS-PAGE and western blotting; assay type: cell-based, human; conditions: MDA-MB-231 cells
Description: Low passage MDA-MB-231 cells were seeded on 12-well plates (200 000 cells per well per 1 mL of medium) and cultured in Dulbecco’s Modification of Eagle’s Medium (DMEM) supplemented with 10% fetal bovine serum, 2 mM of L-glutamine, 100 units per mL penicillin and 100 μg mL^–1 streptomycin. […] To control for non-specific binding, the cells were preincubated with E64d (25 μM) for 2 hours prior to probe addition. At various time points, the medium was aspirated and the cells were gently washed twice with 1 mL of Dulbecco’s Phosphate-Buffered Saline (DPBS) and then trypsinized, harvested and centrifuged for 10 min (500 × g). The supernatants were removed by aspiration and the pellets washed with 1 mL of DPBS and centrifuged (5 min, 500 × g). The supernatants were again removed and the pellets solubilized in 100 μL 1× SDS/DTT and then boiled for 5 min. Each sample was then cooled to room temperature and sonicated (Branson Sonifier 250, duty cycle: 50, output control: 5, cycles: 5) and then 30 μL was loaded on 4–12% Bis-Tris Plus gels and run for 30 min at 200 V with a SDS-PAGE Standards/Broad Range ladder. Proteins were transferred to a 0.2 μm nitrocellulose membrane for 1 hour at 10 V and then Ponceau staining was used to verify equal loading. Membranes were blocked with 2.5% BSA in Tris-buffered saline/0.1% v/v Tween 20 (TBS-T) for 1 hour at room temperature. Cathepsins L and B were detected by primary goat anti-hCathepsin L (R&D, AF952, 0.2 mg mL^–1, 1 : 2000) and goat anti-hCathepsin B (R&D, AF953, 0.2 mg mL^–1, 1 : 1000) antibodies, respectively, followed by incubation with a secondary antibody (IRDye® 800CW, LI-COR, donkey anti-goat, 1 : 10 000). The membranes were incubated with primary antibodies for 2 hours, and with (fluorescent) secondary antibodies for 30 min (both in TBS-T at room temperature). The fluorescence was read at 700 nm (Cyanine5; excitation 685 nm) and 800 nm (secondary antibody; excitation 785 nm) using an Odyssey fluorescence imaging system (LI-COR). The images were analyzed using Image Studio software.

[3] = test system: cathepsins L, V, B, S and K; experiment: Labeling of recombinant cathepsins by Cy5 probes, SDS-PAGE; assay type: biochemical, human; conditions: cathepsins 10 nM or 100 nM, probe/enzyme ratio 0.2, 1, 5 and 25, 30 min, Cy5 scan
Description: In experiment A, the probe concentrations were 2 nM, 10 nM, 50 nM and 250 nM, while in experiment B the probe concentrations were 20 nM, 100 nM, 500 nM and 2.5 μM. The reaction volume for all the samples was 200 μL. After 30 min, 100 μL of 3× SDS/DTT was added to the reaction mixtures, the samples were boiled for 5 min, and then 20 μL of the sample was run on 4–12% Bis-Tris Plus 15-well gels for 30 min at 200 V with 2 μL of PageRuler™ Prestained Protein Ladder. The gels were then directly scanned at 700 nm (red channel for Cy5 detection; excitation 685 nm) using an Odyssey fluorescence imaging system (LI-COR) and the images were analyzed using Image Studio software.

## Cy5-6-ahx-His-DThr-Phe(F5)-Cys(Bzl)-AOMK [MP-cL3]
[1]; single cells analysis, 68 single cells
  weighted colocalization coefficient: 0.635
[1]; whole pictures analysis, 7 images
  weighted colocalization coefficient: 0.646
[2]; 1 μM probe
  incubation time up to which only cathepsin L is labeled (no labeling of cathepsin B): up to 8 hours
[2]; 1 μM probe, 0–18 hours
  incubation time after which probe labeling is detectable in cells: 1 h
[2]; 5 μM probe, 2-16 hours
  incubation time up to which only cathepsin L is labeled: up to two
[3]
  labeling of recombinant cathepsins L, V, B, S and K: very high degree of selectivity
